The record followed here is patent US20120101163A1, “COMPOSITION FOR INHIBITING CANCER METASTASIS” (TAIPEI MEDICAL UNIVERSITY, priority 2010, published 2012).

In assay [1] the test system is matrix metalloproteinase-2. Kind of assay: Gelatin gel zymography of PMA-induced HT 1080 cells, MMP-2 activity. The assay is classed as cell-based, Human. The method, then: 4. Gelatin Gel Zymography (Shim et al., 2003; Park et al., 2005; Hwang et al., 2006)
(§1) HT 1080 cells with appropriate cell numbers were cultured in 60 mm culturing plates for 12 hours, respectively. After the cells were attached onto the bottom of the plate and formed a monolayer, the medium in the plate was removed. Fresh serum free mediums with different concentrations of a test sample were added to the plates, respectively, and 100 nM PMA was added to each plate to induce the cells to express great quantities of matrix metalloproteinase-2 and matrix metalloproteinase-9, and the plates were placed in a temperature of 37° C. for 24 hours. After centrifugation, each cultured supernatant were saved and mixed with SDS-sample buffer under the same protein contents which were then injected into a 10% SDS-polyacrylamide gel (containing 1 mg/ml gelatin) and then electrophoresed. After the electrophoresis was completed, the gel was taken out and washed with 20 mM Tris-HCl containing 25% isopropanol three times; 10 minutes per time. Then the gel was equilibrated with 20 mM Tris-HCl for 30 minutes, and finally an incubate buffer (5 mM CaCl2 and 1 mM ZnCl2) was added to the gel and reacted with the gel overnight. Then the gel was stained with coomassie blue, and positions having matrix metalloproteinase activity of the gel presented a white color.

Assay [2] concerns the target T1, matrix metalloproteinase-2 (Homo sapiens, UniProt P08253).
T1 construct: matrix metalloproteinase-2 and matrix metalloproteinase-9 were secreted from the PMA induced HT 1080; endogenous in cells; host or cells: HT 1080 cells induced with 100 nM PMA
T1 sequence (P08253 110-660): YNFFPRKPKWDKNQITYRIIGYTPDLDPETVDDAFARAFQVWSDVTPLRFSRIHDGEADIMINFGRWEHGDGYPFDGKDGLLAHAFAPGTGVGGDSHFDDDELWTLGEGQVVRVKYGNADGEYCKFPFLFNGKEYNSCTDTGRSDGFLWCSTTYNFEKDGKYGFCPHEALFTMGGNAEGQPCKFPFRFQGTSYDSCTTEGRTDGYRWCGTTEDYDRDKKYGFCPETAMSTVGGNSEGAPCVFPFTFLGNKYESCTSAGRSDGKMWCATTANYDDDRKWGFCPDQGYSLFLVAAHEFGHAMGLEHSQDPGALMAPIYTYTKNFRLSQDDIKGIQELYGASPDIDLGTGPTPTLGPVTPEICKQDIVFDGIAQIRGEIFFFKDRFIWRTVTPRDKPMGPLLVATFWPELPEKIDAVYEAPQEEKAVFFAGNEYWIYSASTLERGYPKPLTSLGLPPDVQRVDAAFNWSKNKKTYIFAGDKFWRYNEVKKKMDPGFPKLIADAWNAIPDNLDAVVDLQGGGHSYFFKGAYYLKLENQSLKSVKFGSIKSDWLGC
Kind of assay: Extracellular inhibition test on enzyme activity of secreted MMP-2 in cultured medium. The class given is biochemical. The following applies: cultured medium of PMA induced HT 1080, different concentrations, 24 hours. The method, then: as §1, with “Then the gel was equilibrated with 20 mM Tris-HCl for 30 minutes, and finally an incubate buffer (5 mM CaCl2 and 1 mM ZnCl2) was added to the gel and reacted with the gel overnight. Then the gel was stained with coomassie blue, and positions having matrix metalloproteinase activity of the gel presented a white color.” left out
(§2) HT 1080 cells were induced with PMA, and the cultured medium for culturing the HT 1080 cells therefrom was taken out and treated with the different concentrations of L-Glutamic acid γ-hydroxamate (DH) for 24 hours, respectively. After that the enzyme activities of the matrix metalloproteinase-2 and matrix metalloproteinase-9 in the medium were analyzed. […]

The target in assay [3] is T2, matrix metalloproteinase-9 (Homo sapiens, UniProt P14780).
T2 construct: matrix metalloproteinase-2 and matrix metalloproteinase-9 were secreted from the PMA induced HT 1080; endogenous in cells; host or cells: HT 1080 cells induced with 100 nM PMA
T2 sequence (P14780 94-707): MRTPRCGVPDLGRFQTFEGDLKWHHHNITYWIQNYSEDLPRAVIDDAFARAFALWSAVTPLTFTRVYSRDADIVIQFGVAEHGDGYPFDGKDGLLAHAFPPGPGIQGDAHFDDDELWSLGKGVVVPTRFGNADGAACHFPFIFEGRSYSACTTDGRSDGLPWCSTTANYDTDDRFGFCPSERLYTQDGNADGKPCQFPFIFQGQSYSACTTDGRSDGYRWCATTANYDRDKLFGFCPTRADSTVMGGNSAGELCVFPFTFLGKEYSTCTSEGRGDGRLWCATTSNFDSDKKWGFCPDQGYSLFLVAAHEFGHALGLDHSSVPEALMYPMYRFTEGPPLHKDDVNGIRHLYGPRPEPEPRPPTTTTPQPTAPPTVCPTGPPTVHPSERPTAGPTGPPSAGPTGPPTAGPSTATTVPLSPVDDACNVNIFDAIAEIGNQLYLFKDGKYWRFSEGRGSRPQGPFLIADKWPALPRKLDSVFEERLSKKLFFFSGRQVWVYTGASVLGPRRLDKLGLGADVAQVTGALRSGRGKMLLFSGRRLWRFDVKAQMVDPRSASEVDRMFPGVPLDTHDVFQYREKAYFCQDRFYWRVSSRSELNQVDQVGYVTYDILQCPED
Kind of assay: Extracellular inhibition test on enzyme activity of secreted MMP-9 in cultured medium. The following applies: cultured medium of PMA induced HT 1080, different concentrations, 24 hours. The assay is classed as biochemical. The method, then: as §1, with “Then the gel was equilibrated with 20 mM Tris-HCl for 30 minutes, and finally an incubate buffer (5 mM CaCl2 and 1 mM ZnCl2) was added to the gel and reacted with the gel overnight. Then the gel was stained with coomassie blue, and positions having matrix metalloproteinase activity of the gel presented a white color.” left out
as §2

Assay [4] concerns matrix metalloproteinase-9. The assay can be described thus: Western blot analysis, MMP-9 protein expression in HT 1080 cells. The assay is classed as cell-based, Human. The method, then: HT 1080 cells with appropriate cell numbers were cultured in 60 mm culturing plates for 12 hours, respectively. After the cells were attached onto the bottom of the plate and formed a monolayer, the medium in the plate was removed. Fresh serum-free mediums with different concentrations of a test drug were added to the plates, respectively, and 100 nM PMA was added to each plate to induce the cells to express great quantities of matrix metalloproteinase-2 and matrix metalloproteinase-9, and the plates were placed in a temperature of 37° C. for 24 hours. A quantitatively cultured supernatant in each plate was centrifuged or protein was extracted from cells in each plate to be quantitated, and then an SDS-sample buffer containing 2-ME was added therein to form a mixture. The mixture was injected into a 10% SDS-polyacrylamide gel […] and then electrophoresed. After electrophoresis was completed, the proteins in the gel were transferred to a PVDF membrane. The PVDF membrane was equilibrated with gelatin-NET at room temperature for 30 minutes. […]

A further assay deals with HT 1080 cells. Kind of assay: Cell adhesion assay (gelatin-coated plate). The class given is cell-based, Human. The method, then: 11. Cell Adhesion Assay (Lee et al., 2005; Ouyang et al., 2005; Zhang et al., 2005)
HT 1080 cells were used to prepare a cell suspension with an appropriate concentration by a fresh serum free medium, and the cell suspension was mixed with test drugs with different concentrations, respectively and then added to wells of a 24 well culturing plate pre-coated with gelatin, respectively. The 24 well culturing plates were placed in an incubator at 37° C. for 30 minutes. After that, the upper medium in each well was removed and the cells were washed with a PBS buffer twice, and then an MTT solution which was prepared with a medium was added to each well. After the 24 well culturing plates were placed in an incubator at 37° C. for reacting for 4-6 hours, an upper medium in each well was removed, and 100 μl of DMSO was added to each well to solubilize the formazan precipitates. After that, an ELISA reader was used to determine the absorbance at 600 nm for each well. The calculation for the adhesion rate of the cells was: […]

As to `NC(CCC(=O)NO)C(=O)O` [DH, L-Glutamic acid γ-hydroxamate], the “protein activity of matrix metalloproteinase-2 secreted out of and left in HT 1080 cells” value in assay [1] (0.4, 0.8, 1.2, and 1.6, 24 hours) is given as “also decreased”. Moreover, in assay [1] (HT 1080 cells treated 24 hours), the “inhibition rate to the activity of matrix metalloproteinase-2” value was “greater than 50%”. In addition, the “matrix metalloproteinase-2 inhibiting activity” value in assay [1] (HT 1080 cells, 0.4, 0.8, 1.2 and 1.6 mM, 24 hours) is given as “increased while the concentration thereof was increased”. Further, the “inhibition rate to the protein activity of metalloproteinase-2 of a cancer cell” value in assay [1] (about 0.1-2 mM, stated as embodiment, 'and/or' MMP-9) is on record as 40-70%. Besides, the “direct inhibition of enzyme activity of secreted matrix metalloproteinase-2” value in assay [2] was “no inhibition”. Also, the “direct inhibition of enzyme activity of secreted matrix metalloproteinase-9” value in assay [3] is given as “no inhibition”. Besides, in assay [4] (0.4, 0.8, 1.2, and 1.6, 24 hours, Western blotting), the “protein expression amount of matrix metalloproteinase-9 secreted out of and left in HT 1080 cells” value is “all decreased”. In assay [4] (about 0.1-2 mM, stated as embodiment, 'and/or' MMP-2), the “inhibition rate to the protein expression amount of matrix metalloproteinase-9 of a cancer cell” value is on record as 40-90%. For the same compound, the “number of HT 1080 cells attached (adhesion)” value with HT 1080 cells (0.4, 1.2, 2 and 2.8 mM, gelatin coated plate, 30 minutes) is listed as “slight dose dependent decreasing trend”. In addition, the “inhibition rate to cancer cell adhesion” value in the assay on HT 1080 cells (about 0.1-3 mM, stated as embodiment) is recorded as 10-30%.
